The target of one test is T1, B2 bradykinin receptor (Homo sapiens, UniProt P30411). Note: in other assays of this panel Not Active means under 50% inhibition at 10 µM.
T1 sequence (P30411 whole entry): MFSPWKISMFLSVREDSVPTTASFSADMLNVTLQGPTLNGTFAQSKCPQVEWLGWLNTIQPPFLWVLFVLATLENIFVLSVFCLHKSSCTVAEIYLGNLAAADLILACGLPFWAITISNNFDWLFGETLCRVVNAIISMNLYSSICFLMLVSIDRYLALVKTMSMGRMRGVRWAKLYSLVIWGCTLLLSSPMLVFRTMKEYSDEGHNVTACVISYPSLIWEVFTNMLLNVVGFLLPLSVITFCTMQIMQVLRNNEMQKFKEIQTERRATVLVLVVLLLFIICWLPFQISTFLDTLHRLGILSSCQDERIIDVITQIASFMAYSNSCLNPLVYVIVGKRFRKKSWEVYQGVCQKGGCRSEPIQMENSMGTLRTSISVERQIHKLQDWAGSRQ
The class given is cell membranes, Membrane. The settings on record: chem-1.

In test [1] the target is 5-hydroxytryptamine receptor 4 (Cavia porcellus, UniProt O70528). It is filed as cell membranes, Dunkin-Hartley, Striatum, Membrane. Note: in other assays of this panel Not Active means under 50% inhibition at 10 µM.
For another test, the target named is Substance-P receptor (Homo sapiens, UniProt P25103). It is filed as cell membranes, CHO, Membrane. The following applies: cho. Note: in other assays of this panel Not Active means under 50% inhibition at 10 µM.
Test [2] has as its target T2, C-X-C chemokine receptor type 2 (Homo sapiens, UniProt P25025). Note: in other assays of this panel Not Active means under 50% inhibition at 10 µM.
T2 sequence (P25025 whole entry): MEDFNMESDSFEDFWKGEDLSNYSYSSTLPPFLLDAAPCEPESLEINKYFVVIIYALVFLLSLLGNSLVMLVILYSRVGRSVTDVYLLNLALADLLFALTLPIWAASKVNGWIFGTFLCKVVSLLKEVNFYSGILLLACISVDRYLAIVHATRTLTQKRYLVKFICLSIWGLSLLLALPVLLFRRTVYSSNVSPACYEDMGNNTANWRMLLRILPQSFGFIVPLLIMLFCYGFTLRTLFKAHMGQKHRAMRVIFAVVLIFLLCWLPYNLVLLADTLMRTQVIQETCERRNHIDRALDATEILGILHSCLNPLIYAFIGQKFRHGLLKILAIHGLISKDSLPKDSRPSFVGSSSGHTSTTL
It is filed as cell membranes, Membrane. The following applies: cho-k1.

Test [3] deals with T3, Amine oxidase [flavin-containing] A (Homo sapiens, UniProt P21397).
T3 sequence (P21397 whole entry): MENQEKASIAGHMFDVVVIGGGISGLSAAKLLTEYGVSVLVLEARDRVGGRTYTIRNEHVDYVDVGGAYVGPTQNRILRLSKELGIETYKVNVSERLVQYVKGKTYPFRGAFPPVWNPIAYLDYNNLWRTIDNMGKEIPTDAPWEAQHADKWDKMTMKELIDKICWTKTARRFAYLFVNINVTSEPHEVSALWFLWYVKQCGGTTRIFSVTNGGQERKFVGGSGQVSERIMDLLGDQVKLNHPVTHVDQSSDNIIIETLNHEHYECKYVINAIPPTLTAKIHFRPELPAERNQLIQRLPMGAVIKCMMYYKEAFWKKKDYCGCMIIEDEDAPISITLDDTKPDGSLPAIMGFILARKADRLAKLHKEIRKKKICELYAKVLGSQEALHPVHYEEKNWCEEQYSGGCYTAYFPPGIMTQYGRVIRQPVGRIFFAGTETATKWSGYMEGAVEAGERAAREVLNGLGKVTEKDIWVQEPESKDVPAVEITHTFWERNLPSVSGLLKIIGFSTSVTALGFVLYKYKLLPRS
Kind of test: DRUGMATRIX: Monoamine Oxidase MAO-A enzyme inhibition (substrate: Kynuramine). Details: species or system BTI-TN-5B1-4. The settings on record: bti-tn-5b1-4; Not Active = under 50% inhibition at 10 µM.

Test [4] addresses Platelet-activating factor receptor (Homo sapiens, UniProt P25105). The class given is tissue-based.
Test [5] has as its target Epidermal growth factor receptor (Homo sapiens, UniProt P00533). Kind of test: DRUGMATRIX: Protein Tyrosine Kinase, EGF Receptor enzyme inhibition (substrate: Poly(Glu:Tyr)). It is filed as cell-based, Insect cells. The settings on record: Not Active = under 50% inhibition at 10 µM.

This note sets out measurements from ChEMBL document CHEMBL1909046, “DrugMatrix in vitro pharmacology data”.

5-hydroxytryptamine receptor 4, sequence (O70528 whole entry): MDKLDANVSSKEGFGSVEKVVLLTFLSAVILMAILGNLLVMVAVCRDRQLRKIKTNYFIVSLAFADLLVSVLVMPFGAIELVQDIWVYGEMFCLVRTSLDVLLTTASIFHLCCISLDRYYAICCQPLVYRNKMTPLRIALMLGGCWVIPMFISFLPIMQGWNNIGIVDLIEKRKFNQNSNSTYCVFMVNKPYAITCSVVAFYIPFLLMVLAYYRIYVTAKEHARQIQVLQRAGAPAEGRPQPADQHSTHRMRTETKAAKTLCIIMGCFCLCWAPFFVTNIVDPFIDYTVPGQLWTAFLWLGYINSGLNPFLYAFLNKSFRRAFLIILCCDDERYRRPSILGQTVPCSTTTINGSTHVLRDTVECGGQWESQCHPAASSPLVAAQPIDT
Platelet-activating factor receptor, sequence (P25105 whole entry): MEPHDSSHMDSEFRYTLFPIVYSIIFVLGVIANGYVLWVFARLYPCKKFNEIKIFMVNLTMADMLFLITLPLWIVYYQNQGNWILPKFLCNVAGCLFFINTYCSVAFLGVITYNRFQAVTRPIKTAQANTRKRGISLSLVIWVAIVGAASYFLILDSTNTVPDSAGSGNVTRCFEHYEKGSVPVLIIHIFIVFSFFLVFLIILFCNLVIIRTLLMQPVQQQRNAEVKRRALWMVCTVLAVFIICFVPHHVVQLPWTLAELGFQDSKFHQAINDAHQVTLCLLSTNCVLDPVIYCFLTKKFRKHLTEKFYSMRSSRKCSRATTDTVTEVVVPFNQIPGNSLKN
Substance-P receptor, sequence (P25103 whole entry): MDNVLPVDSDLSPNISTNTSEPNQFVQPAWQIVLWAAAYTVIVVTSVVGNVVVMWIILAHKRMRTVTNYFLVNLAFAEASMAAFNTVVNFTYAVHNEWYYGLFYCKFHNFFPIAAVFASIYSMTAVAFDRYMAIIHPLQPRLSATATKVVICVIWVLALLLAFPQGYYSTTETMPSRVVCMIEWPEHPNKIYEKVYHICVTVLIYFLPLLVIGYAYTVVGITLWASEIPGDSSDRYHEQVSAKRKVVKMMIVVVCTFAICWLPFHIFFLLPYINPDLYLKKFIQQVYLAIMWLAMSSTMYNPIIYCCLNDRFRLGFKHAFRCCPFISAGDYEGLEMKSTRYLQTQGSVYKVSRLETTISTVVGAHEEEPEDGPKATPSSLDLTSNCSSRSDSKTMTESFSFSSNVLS

Consider `CCCCCCCCNC(C)C(O)c1ccc(SC(C)C)cc1` (centres undefined) [SULOCTIDIL], for which the IC50 entry (at B2 bradykinin receptor; in test [1]; at Substance-P receptor; in test [2]; in test [3]; in test [4]) was “Not Active” each time. Also, in test [5] (read-out: IC50), the IC50 is 794 nM.

As for `O=c1[nH]c(=O)n(C2CCCO2)cc1F` (centres undefined) [TEGAFUR], the IC50 result (on B2 bradykinin receptor; in test [1]; against Substance-P receptor; in test [2]; in test [3]; in test [4]) was “Not Active” in each case. Further, the half-inhibitory concentration (IC50) entry in test [5] (insect cells) is listed as “Not Active”.

For the molecule `CC(=N)S` [THIOACETAMIDE], the IC50 entry (at B2 bradykinin receptor; in test [1]; against Substance-P receptor; in test [2]; in test [3]; in test [4]) was “Not Active” throughout. Also, the IC50 entry in test [5] (insect cells) is reported as “Not Active”.

Take `Cc1ccc(C(=O)c2ccc(CC(=O)O)n2C)cc1` [TOLMETIN]: the IC50 entry (against B2 bradykinin receptor; in test [1]; against Substance-P receptor; in test [2]; in test [3]; in test [4]) was “Not Active” in each case. The IC50 entry in test [5] (insect cells) is “Not Active”.

For the molecule `CC(=O)OCC(COC(C)=O)OC(C)=O` [TRIACETIN], the IC50 result (on B2 bradykinin receptor; in test [1]; on Substance-P receptor; in test [2]; in test [3]; in test [4]) was “Not Active” each time. For the same molecule, the IC50 result in test [5] (insect cells) is “Not Active”.

As for `CN1CCN(CCCN2c3ccccc3Sc3ccc(C(F)(F)F)cc32)CC1` [TRIFLUOPERAZINE], the concentration for half-maximal inhibition (IC50) entry (against B2 bradykinin receptor; in test [1]; at Substance-P receptor; in test [2]; in test [3]; in test [4]) was “Not Active” in each case. In test [5] (insect cells), the IC50 entry is given as “Not Active”.

On to TRANSPLATIN, for which the IC50 entry (at B2 bradykinin receptor; in test [1]; on Substance-P receptor; in test [2]; in test [3]; in test [4]) was “Not Active” throughout. Besides, in test [5] (insect cells, read-out: IC50), the IC50 was determined as 1060 nM. Besides, the Ki entry (at B2 bradykinin receptor; in test [1]; on Substance-P receptor; in test [2]; in test [3]; in test [4]) was “Not Active” throughout.

With ZIRCONIUM(IV) CHLORIDE, the IC50 entry (against B2 bradykinin receptor; in test [1]; against Substance-P receptor; in test [2]; in test [3]; in test [4]) was “Not Active” throughout. For the same molecule, the IC50 entry in test [5] (insect cells) is on record as “Not Active”. The Ki result (at B2 bradykinin receptor; in test [1]; at Substance-P receptor; in test [2]; in test [3]; in test [4]) was “Not Active” throughout. Further, the Ki entry in test [5] (insect cells) is given as “Not Active”.

As usually defined, the IC50 is the concentration needed to halve the response being measured.
